Data on 13 compounds can be found in patent publication US8981149B2, “Compounds modulating the hedgehog protein signaling pathway, marked forms thereof, and applications” (Centre National De La Recherche Scientifique, priority 2011, dated 2015).

The target in data set [1] is T1, human Smoothened receptor (Homo sapiens, UniProt Q99835).
T1 construct: expressed in transfected cells
Put plainly: Inhibition of binding of 3H-(7d) to membranes of HEK-hSmo cells. The settings on record: for Ki: read-out: Ki ± SEM, binding of compound 3H-(7d). The protocol: The binding test is carried out on membranes enriched with Smoothened receptor. Cells of the HEK-hSmo line were used for preparing these membranes. The cells are washed and recovered in iced PBS. After centrifugation at 100 g for 7 minutes at 4° C., the pellet is taken up in 10 times its volume of an iced buffer A (50 mM HEPES, pH 7.4, 1 mM EDTA) with addition of 10 μl of a cocktail of protease inhibitors (PEAK, Sigma) per ml of buffer, then it is homogenized using a Polytron grinding mill. After centrifugation at 500 g for 30 minutes at 4° C., which makes it possible to remove the nuclei from the cells, the supernatant is centrifuged again at 48 000 g for 45 min at 4° C. The pellet is taken up in 2 ml of buffer A with PEAK added, then the suspension is homogenized using a glass conical grinding mill and is passed through a 23 G needle. Finally, aliquots are placed in Eppendorf tubes and stored at −80° C. The concentration of total protein in the preparation is determined by Lowry's method using BSA for preparing the standard range.
The membranes are resuspended in a buffer (50 mM HEPES and 3 mM MgCl2) containing 0.2% of BSA. The tests of binding of ^3H-(7d) are carried out in polypropylene tubes. The membranes (2 μg of proteins) are incubated with the ^3H-(7d) in the presence or absence of the cold test compounds for 3 hours at 37° C. in a final volume of 400 μl. Incubation is stopped by immersing the tubes in iced water followed by rapid filtration (Brandel) through a glass fiber filtration membrane (GF/C) treated beforehand with 0.3% of polyethylenimine, which can reduce the nonspecific binding of the ^3H-(7d) to the filtration membrane. The radioactivity retained on the filter is measured in the presence of 3 ml of scintillating agent in a liquid scintillation counter.
In this experiment, the cold ligand competes with the radioactive ligand for binding to the receptor, and the affinity (Ki) of each cold ligand for the receptor can be analyzed based on the IC50 values deduced from the inhibition curves.

The subject of the next data set is C3H10T1/2 cells. Put plainly: Differentiation of C3H10T1/2 cells induced by SAG, alkaline phosphatase (AP) activity. In kind it is cell-based, mouse. The protocol:
The test compounds of formula (I) were dissolved in dimethylsulfoxide up to a concentration of 10 mM, then stored at a temperature of −20° C. until used.
The line of C3H10T1/2 pluripotent fibroblast cells (ATCC) was cultured in the conditions recommended by the ATCC. These cells were activated using 0.1 μM of SAG according to the methods described by Chen et al., Proc. Natl. Acad. Sci. USA, 2002, 99, 14071 and Frank-Kamenetsky et al., J. Biol., 2002, 1, 10.
Activation by SAG causes differentiation of the cell line and allows it to express alkaline phosphatase (AP). It was thus possible to measure the activity of the Hedgehog protein signalling pathway via measurement of the alkaline phosphatase (AP) activity.
The C3H10T1/2 cells were seeded on 96-well plates at a density of 5.10^3 cells per well, 24 hours before adding the test compounds at a concentration varying from 1 nM to 30 μM and in the presence of 0.1 μM of SAG, using DMEM (Dulbecco's Modified Eagle's Medium) with 10% fetal calf serum as culture medium. The tests were carried out in quadruplicate. The plates were then incubated for 5 to 6 days at a temperature of 37° C. under 5% CO2 atmosphere. The cells were then washed in cold phosphate buffer (“Phosphate Buffer Serum”: PBS), then lysed by sonication at 4° C. in 50 μL of a solution containing 0.9% of NaCl and 0.2% of Triton X-100.
Measurement of the alkaline phosphatase (AP) activity in the lysates thus obtained was then performed according to the method described by Pepinsky et al. (J. Biol. Chem., 1998, 273, 14037). After adding 100 μL of reaction buffer (200 mM Tris-HCl; pH 10.5; 0.4 M of 2-amino-2-methylpropanol and 8 mM of MgCl2) and 50 μL of substrate (4 mM of p-nitrophenyl disodium phosphate), the lysates were incubated at 37° C. for 30-60 min, then the optical density was read at a wavelength of 415 nm.

The nature of data set [2]: Binding of 3H-(7d) to membranes of HEK293 cells not transfected with human Smo cDNA. The note with it: 1 μM.
In a further data set the test system is PCGs of rat cerebellum. As to the kind of experiment: Proliferation of granule cell precursors (PCGs) of rat cerebellum induced by SAG, 3H-thymidine incorporation. In kind it is cell-based. The settings on record: proliferation induced by SAG (0.01 μM), 3H-thymidine incorporation, read-out: IC50 ± SEM, PCGs of rat cerebellum (3). The protocol: The granule cell precursors (GCP) are isolated from cerebellums of rats (IFFA-CREDO, France), 8 days after birth (P8). The cerebellums are taken, cut into small pieces, placed in Krebs-Ringer buffer (120 mM NaCl, 5 mM KCl, 1 mM KH2PO4, 25 mM NaHCO3, 15 mM glucose, 0.04 mM phenol red) and incubated for 15 minutes at room temperature in a dissociation buffer composed of Krebs-Ringer with addition of 250 mg/ml of trypsin (Sigma, France). Enzymatic dissociation is stopped by adding an equal volume of Krebs-Ringer buffer containing 250 mg/ml of a trypsin inhibitor and 80 mg/ml of DNase (Sigma, France). The tissue is centrifuged at 100 g for 10 seconds and the pellet obtained is resuspended and triturated using Pasteur pipettes of decreasing diameter to obtain a suspension of isolated cells. This suspension is centrifuged at 200 g for 5 minutes and the pellet obtained is resuspended in Neurobasal medium supplemented with 1 mM of pyruvate, 2 mM L-glutamine, penicillin/streptomycin and 1% of supplement N2, 60 mg/ml N-acetyl cysteine and […] of bovine serum albumin (BSA, Sigma, France).
The cerebellar GCPs obtained are transferred to 96-well plates treated beforehand with poly-D-lysine at a density of 2.10^5 cells/well. SAG in the presence or absence of the other test compounds is added immediately. 12 hours before the end of culture, tritiated thymidine (^3H-thymidine) is added. The cells are aspirated and recovered on a glass fiber filter (GF/C) using an automated cell collector (Brandel, USA). The amount of radioactivity incorporated by the cells was quantified in the presence of a scintillating agent in a liquid scintillation counter (Wallac, USA).
The cerebellar PCGs proliferate in response to activation of the Shh signalling pathway, a response that can be inhibited by the Smo antagonists (Rohatgi et al., 2009, Proc. Natl. Acad. Sci. USA 106: 3196-201). We therefore analyzed the capacity of compound (7d) for inhibiting the proliferation of the PCGs of rat cerebellum in primary culture by measuring the incorporation of tritiated thymidine, a marker of DNA newly synthesized during the proliferation process.

A further data set deals with cells. The note with it: Borzillo et al., 2005; cited from earlier work.
The target of a further data set is T2, human Smo receptor (Homo sapiens, UniProt Q99835).
T2 construct: expressed in transfected cells
T2 sequence (Q99835 28-787): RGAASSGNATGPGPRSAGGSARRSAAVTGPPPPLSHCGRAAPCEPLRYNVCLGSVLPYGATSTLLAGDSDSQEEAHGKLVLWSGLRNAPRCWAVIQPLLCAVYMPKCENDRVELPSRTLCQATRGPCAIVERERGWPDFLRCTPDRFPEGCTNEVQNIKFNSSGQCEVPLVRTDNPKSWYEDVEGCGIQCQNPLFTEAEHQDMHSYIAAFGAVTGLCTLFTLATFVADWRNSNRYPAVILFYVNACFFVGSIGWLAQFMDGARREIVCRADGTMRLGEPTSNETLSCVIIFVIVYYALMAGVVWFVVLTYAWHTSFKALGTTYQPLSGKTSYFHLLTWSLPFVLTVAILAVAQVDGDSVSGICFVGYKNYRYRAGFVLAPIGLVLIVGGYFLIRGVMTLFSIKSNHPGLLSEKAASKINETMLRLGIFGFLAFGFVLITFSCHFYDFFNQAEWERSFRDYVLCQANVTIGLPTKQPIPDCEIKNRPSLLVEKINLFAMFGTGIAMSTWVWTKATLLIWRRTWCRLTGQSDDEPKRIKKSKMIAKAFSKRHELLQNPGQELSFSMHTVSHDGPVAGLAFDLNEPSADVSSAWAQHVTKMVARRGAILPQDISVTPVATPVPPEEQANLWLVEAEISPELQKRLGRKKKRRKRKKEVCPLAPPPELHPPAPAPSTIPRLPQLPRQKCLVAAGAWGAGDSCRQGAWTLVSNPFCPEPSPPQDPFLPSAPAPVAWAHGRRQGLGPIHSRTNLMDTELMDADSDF
Put plainly: Competition with bodipy-cyclopamine (BC) binding in HEK-hSmo cells. The settings on record: for IC50: bodipy-cyclopamine (5 nM), HEK-hSmo cells, read-out: IC50 ± SEM, BC binding (4). The protocol:
Cells of the HEK293 line stably transfected with the human Smo receptor are used. The experiment was conducted according to the protocol described in Roudaut et al., Mol. Pharmacol. 79: 453-460, 2011.
At the end of the incubation, the cells are fixed and stained with DAPI, a fluorescent molecule with high affinity for DNA which makes it possible to visualize the nuclei in blue in fluorescence microscopy.

The mark [3] stands for this setting: 0.35 nM 3H-(7d), HEK-hSmo membranes, 3 hours at 37° C., read-out: IC50 ± SEM, binding of compound 3H-(7d).
Where [4] appears, read: calculated from IC50, HEK-hSmo membranes.
Where [5] appears, read: Mus musculus, C3H 10T1/2, after induction by SAG at 0.1 μM, read-out: IC50, inhibition of alkaline phosphatase (AP) activity, differentiation of C3H10T1/2 cells.
Where [6] appears, read: Mus musculus, C3H 10T1/2, AP activity, differentiation induced by SAG (0.1 μM), read-out: IC50 ± SEM, C3H10T1/2 cells (2).
[7] abbreviates: AP activity, differentiation induced by SAG (0.1 μM), read-out: IC50 ± SEM, C3H10T1/2 cells (2).
Setting [8] is: after induction by SAG at 0.1 μM, read-out: IC50, inhibition of alkaline phosphatase (AP) activity, differentiation of C3H10T1/2 cells.

Values joined by “and” are separate entries in the source; they are usually repeats but may differ in a detail not shown here. Equal values may be shown once. Where a name gives a salt, the structure may show the parent alone. Read-outs that look alike come from different tables or passages of the source.

T1 sequence (Q99835 28-787): as above

On to `COc1cccc(CN(C(=O)CC(C)(C)C)[C@H]2C[C@@H](C(=O)N3CCNCC3)N(Cc3ccc4c(c3)OCO4)C2)c1` [Cur61414], for which, in data set [1] (HEK-hSmo membranes), the “Inhibition of the binding of compound 3H-(7d), in words” value is “micromolar order”.

Consider `COc1cc(C(=O)NC(=S)Nc2cccc(NC(=O)c3ccccc3)c2)cc(OC)c1OC` [MRT-10], for which the IC50 in the data set on C3H10T1/2 cells (SAG 0.1 μM, Mean ± SEM, n ≧ 3, read-out: IC50, differentiation of C3H10T1/2 cells) worked out at 900 ± 200 nM.

For the compound `CNC1CCC(N(Cc2cccc(-c3ccncc3)c2)C(=O)c2sc3ccccc3c2Cl)CC1` (centres unmarked) [SAG], in data set [1] (setting [3]), the IC50 was 5 nM and 5.2 nM. In addition, the Ki in data set [1] (setting [4]) is 2.4 ± 0.3 nM.

For the compound `COc1cc(C(=O)NC(=N)Nc2ccc(C)c(NC(=O)c3ccc(C(=O)c4ccccc4)cc3)c2)cc(OC)c1OC` [Compound 7a, N—(N-(3-(4-benzoylbenzamido)-4-methylphenyl)carbamimidoyl)-3,4,5-trimethoxybenzamide hydrochloride], in the data set with C3H10T1/2 cells (setting [5]), the IC50 was found to be 32 ± 11 nM.

`c1ccc2c(Oc3nc(Nc4ccc(N5CCOCC5)cc4)c4ncn(C5CCCCC5)c4n3)cccc2c1` [Purmorphamine, purmorphamine]: in data set [1] (0.35 nM 3H-(7d), HEK-hSmo membranes, 3 hours at 37° C.), the “IC50 ± SEM, binding of compound 3H-(7d)” value was “inactive”. Further, in data set [1] (HEK-hSmo membranes), the “Inhibition of the binding of compound 3H-(7d), in words” value is listed as “not active”. In addition, the IC50 in data set [1] (HEK-hSmo membranes, agonists (FIG. 5), read-out: IC50, binding of compound 3H-(7d), unit inferred) is greater than 1000 nM. Moreover, the “Ki ± SEM, binding of compound 3H-(7d)” value in data set [1] (setting [4]) is “inactive”.

Turning to `COc1cc(C(=O)NC(=N)Nc2ccc(C)c(NC(=O)c3ccc4c(c3)Cc3ccccc3-4)c2)cc(OC)c1OC` [Compound 7b, N-(2-methyl-5-(3-(3,4,5-trimethoxybenzoyl)guanidino)phenyl)-9H-fluorene-2-carboxamide hydrochloride], the IC50 with C3H10T1/2 cells (setting [5]) came to 28 ± 3 nM.

As for `CS(=O)(=O)c1ccc(C(=O)Nc2ccc(Cl)c(-c3ccccn3)c2)c(Cl)c1` [GDC-0449], in data set [1] (1 μM), the “Inhibition of the specific binding of compound 3H-(7d) at a single concentration” value is given as “completely inhibits”. For the same compound, the “Effect on the binding of compound 3H-(7d) to non-transfected membranes” value in data set [2] is “no effect”. The results for the IC50 in the data set on C3H10T1/2 cells (setting [6]), in the data set with C3H10T1/2 cells (setting [5]) and in the data set with PCGs of rat cerebellum (Rattus norvegicus) were 10 ± 3 nM, 10 ± 1 nM and 8 ± 1 nM, respectively.

Regarding `COc1cc(C(=O)NC(=N)Nc2ccc(C)c(NC(=O)c3ccc(Cc4ccccc4)cc3)c2)cc(OC)c1OC` [Compound 7g, N—(N-(3-(4-benzylbenzamido)-4-methylphenyl)carbamimidoyl)-3,4,5-trimethoxybenzamide hydrochloride], in the data set on C3H10T1/2 cells (setting [5]), the IC50 was determined as 220 ± 25 nM.

For `COc1cc(C(=O)NC(=N)Nc2ccc(C)c(NC(=O)c3ccc(OCc4ccccc4)cc3)c2)cc(OC)c1OC` [Compound 7h, N—(N-(3-(4-(benzyloxy)benzamido)-4-methylphenyl)carbamimidoyl)-3,4,5-trimethoxybenzamide hydrochloride], in the data set on C3H10T1/2 cells (setting [5]), the IC50 was 72 ± 15 nM.

`COc1cc(C(=O)NC(=N)Nc2ccc(C)c(NC(=O)c3ccc(C/C=C/c4ccccc4)cc3)c2)cc(OC)c1OC` [Compound 7e, (E)-N—(N-(3-(4-cinnamylbenzamido)-4-methylphenyl)carbamimidoyl)-3,4,5-trimethoxybenzamide hydrochloride]: in the data set on C3H10T1/2 cells (setting [5]), the IC50 worked out at 57 ± 2 nM.

Turning to cyclopamine, the “Concentration cytotoxic for the cells” value in the data set on cells is “above 10 μM”. Moreover, the values for the IC50 in the data set with C3H10T1/2 cells (setting [7]), in the data set with C3H10T1/2 cells (setting [8]) and with PCGs of rat cerebellum were 620 ± 30 nM, 620 ± 30 nM and 103 nM, respectively.

For the compound `Cc1c(C(=O)Nc2ccc(N3C[C@@H](C)O[C@@H](C)C3)nc2)cccc1-c1ccc(OC(F)(F)F)cc1` [LDE225], the IC50 in data set [1] (setting [3]) is 4 nM and 4.2 nM; on human Smo receptor, 8 ± 2 nM; in the data set with C3H10T1/2 cells (setting [6]), 22 ± 3 nM; in the data set with C3H10T1/2 cells (setting [5]) it was 22 ± 3 nM; with PCGs of rat cerebellum (Rattus norvegicus), 3 nM. In addition, the Ki in data set [1] (setting [4]) is 1.9 ± 0.3 nM.

In the case of `COc1cc(C(=O)NC(N)=Nc2ccc(C)c(NC(=O)c3ccc(-c4ccccc4)cc3)c2)cc(OC)c1OC` [MRT-83], the IC50 in data set [1] (setting [3]) was 11 nM and 10.5 nM; on human Smo receptor, 5 ± 3 nM; with C3H10T1/2 cells (setting [7]) it was 11 ± 3 nM; with C3H10T1/2 cells (setting [8]) it was 11 ± 3 nM; in the data set on PCGs of rat cerebellum it was 6 nM. In data set [1] (setting [4]), the Ki is 4.8 ± 1.2 nM. Also, the “Block of the binding of BC to HEK-hSmo cells, in words” value at human Smo receptor (BC 5 nM, 2 hours) is “very similar and high”.
